In patent publication US20250353819A1, “ARYL HYDANTOIN COMPOUNDS AND METHODS OF USE” (priority 2022, published 2025):
Like-named read-outs stand apart in the source and are kept apart here.

How the values were obtained:
CYP 2C19 = CYP 2C19 (Homo sapiens (Human), UniProt P33261); experiment: CYP inhibition in human liver microsomes, 2C19; type: in vitro ADME
[1] = Whole blood-to-plasma ratio, mouse
[2] = Stability in human cryopreserved hepatocytes; type: in vitro ADME
[3] = Stability in rat cryopreserved hepatocytes; type: in vitro ADME
[4] = Mouse exposure / pharmacokinetic studies; type: in vivo, mice; details: for half-life / clearance: iv, 1 mg/kg
[5] = Plasma protein binding (rapid equilibrium dialysis), human plasma; type: in vitro ADME
LogD7.4 (shake flask) = details: pH 7.4
[6] = Whole blood-to-plasma ratio, rat; type: in vitro ADME
Protocol: As part of the assessment of the IV pharmacokinetics, an additional blood sample was collected from each rat at 1 h post dose for the purposes of determining the whole blood-to-plasma (B/P) ratio. Arterial blood was collected into tubes containing heparin. The haematocrit was determined via centrifugation (13000×g for 4 min using a Clemets® Microhematocrit centrifuge and Safecap® Plain Self-sealing Mylar Wrapped capillary tubes), and values ranged from 41% to 42%. Each blood aliquot ([…]) was collected and matrix matched with an equivalent volume of blank plasma. The remainder of the blood sample was centrifuged and […] plasma aliquot was collected and matrix matched with an equivalent volume of blank blood. Samples were frozen on dry ice and stored at −80° C. until analysis by LC-MS.

CYP 1A2 = CYP 1A2 (Homo sapiens (Human), UniProt P05177); experiment: CYP inhibition in human liver microsomes, 1A2; type: in vitro ADME
S. mansoni = experiment: Antischistosomal screen in S. mansoni-infected mice; type: in vivo, Schistosoma mansoni; details: Schistosoma mansoni, single oral dose, mouse model
Excerpt: Antischistosomal Screen. […] As described by Lombardo et al. (2019), cercariae of S. mansoni were obtained from infected Biomphalaria glabrata. By way of example, NMRI mice were infected subcutaneously with approximately 100 S. mansoni cercariae. […] Untreated mice (n=8) served as controls. At 21 d post-treatment, animals were killed by the CO2 method and dissected. Worms were removed by picking, then sexed and counted.

[7] = Pharmacokinetics in male Sprague Dawley rats; type: in vivo, rat; details: rats, mean (n = 3); for half-life: read-out: Apparent t1/2 (converted)
Protocol: IV and oral formulations were prepared using the same method. On the day of dosing the solid compound was dissolved in DMSO prior to addition of a saline solution (0.9% w/v). The samples were then mixed using vortexing producing colourless solutions. The IV formulation was filtered through a 0.22 μm syringe filter prior to dosing and the oral formulation was dosed without filtration.
Samples of arterial blood were collected up to 168 h post-dose. Urine samples were not collected as animals were housed in bedded cages. Arterial blood was collected directly into borosilicate vials (at 4° C.) containing heparin as anticoagulant. Once collected, blood samples were centrifuged, supernatant plasma was removed and stored frozen (−80° C.) until analysis by LC-MS. A summary of the bioanalytical method and assay validation details is included in Tables 14 and 15.
Plasma concentration versus time data were analysed using non-compartmental methods (PKSolver Version 2.0). Standard calculations for each pharmacokinetic parameter are listed below.

CYP 3A4 = CYP 3A4 (Homo sapiens (Human), UniProt P08684); experiment: CYP inhibition in human liver microsomes, 3A4
[8] = mice, oral, mean dose 6.73 mg/kg
[9] = mice, oral, mean dose 13.5 mg/kg
[10] = mice, oral, mean dose 26.3 mg/kg
[11] = mice, oral, mean dose 55.6 mg/kg
[12] = mice, oral, mean dose 99.7 mg/kg

Sequence of CYP 3A4 (P08684 whole entry): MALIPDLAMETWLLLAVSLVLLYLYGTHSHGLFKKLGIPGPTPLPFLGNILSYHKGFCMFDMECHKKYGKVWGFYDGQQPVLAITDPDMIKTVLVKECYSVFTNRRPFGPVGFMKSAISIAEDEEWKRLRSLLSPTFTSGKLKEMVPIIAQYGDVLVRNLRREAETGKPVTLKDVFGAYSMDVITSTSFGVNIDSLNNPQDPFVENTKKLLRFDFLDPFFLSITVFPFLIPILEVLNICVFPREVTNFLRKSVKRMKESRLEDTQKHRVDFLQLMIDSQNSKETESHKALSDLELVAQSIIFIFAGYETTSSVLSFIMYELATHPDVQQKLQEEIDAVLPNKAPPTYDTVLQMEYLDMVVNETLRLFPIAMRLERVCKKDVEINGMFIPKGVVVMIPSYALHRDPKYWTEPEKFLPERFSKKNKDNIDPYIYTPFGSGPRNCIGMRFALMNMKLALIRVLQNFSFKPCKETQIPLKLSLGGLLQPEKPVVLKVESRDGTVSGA
Sequence of CYP 1A2 (P05177 whole entry): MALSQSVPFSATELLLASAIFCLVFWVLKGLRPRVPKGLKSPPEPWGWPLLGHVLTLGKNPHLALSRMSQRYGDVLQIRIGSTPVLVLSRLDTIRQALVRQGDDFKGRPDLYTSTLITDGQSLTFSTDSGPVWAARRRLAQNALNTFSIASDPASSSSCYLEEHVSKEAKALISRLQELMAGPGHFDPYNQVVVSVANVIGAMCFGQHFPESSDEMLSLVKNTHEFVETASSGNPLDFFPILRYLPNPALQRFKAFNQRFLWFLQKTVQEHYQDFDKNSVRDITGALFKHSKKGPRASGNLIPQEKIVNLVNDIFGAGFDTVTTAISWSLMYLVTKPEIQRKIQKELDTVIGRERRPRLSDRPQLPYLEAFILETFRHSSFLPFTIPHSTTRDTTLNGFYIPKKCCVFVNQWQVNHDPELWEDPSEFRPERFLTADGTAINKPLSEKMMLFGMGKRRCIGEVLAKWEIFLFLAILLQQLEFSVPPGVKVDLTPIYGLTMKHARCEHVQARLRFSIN
Sequence of CYP 2C19 (P33261 whole entry): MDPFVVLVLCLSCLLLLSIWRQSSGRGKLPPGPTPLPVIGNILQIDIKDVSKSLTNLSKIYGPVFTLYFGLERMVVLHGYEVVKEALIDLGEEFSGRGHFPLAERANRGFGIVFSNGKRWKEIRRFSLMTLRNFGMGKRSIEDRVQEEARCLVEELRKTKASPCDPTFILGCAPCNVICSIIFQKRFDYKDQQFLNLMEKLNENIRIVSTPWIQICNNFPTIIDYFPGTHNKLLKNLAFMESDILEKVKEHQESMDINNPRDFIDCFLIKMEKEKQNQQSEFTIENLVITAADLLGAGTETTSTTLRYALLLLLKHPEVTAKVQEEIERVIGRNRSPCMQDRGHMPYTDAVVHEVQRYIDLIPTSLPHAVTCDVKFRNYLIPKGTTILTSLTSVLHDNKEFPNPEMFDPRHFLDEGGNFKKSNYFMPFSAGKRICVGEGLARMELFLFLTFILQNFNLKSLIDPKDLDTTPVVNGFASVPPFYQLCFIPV

SMILES: [2H]C([2H])([2H])C1(C([2H])([2H])[2H])NC(=O)N(c2ccc(F)c(C(C)(F)F)c2)C1=O [Compound IE, 3-(3-(1,1-difluoroethyl)-4-fluorophenyl)-5,5-bis(methyl-d3)imidazolidine-2,4-dione]
- IC50 (CYP 2C19; 2C19, read-out: CYP inhibition IC50): > 20 µM
- CYP inhibition (CYP 2C19; CYP 2C19, concentrations up to 20 μM, human liver microsomes): did not inhibit
- B:P [1]: 1.0
- CLint [2]: <2 μL/min/10^6
- hepatocyte CLint ([2]; read-out: in vitro CLint): < 2000 µL/min/1e6 cells
- CLint ([3]; Rat cryopreserved hepatocytes): <2 μL/min/10^6
- hepatocyte CLint ([3]; rat cryopreserved hepatocytes, read-out: in vitro CLint): < 2000 µL/min/1e6 cells
- half-life ([4]; male, Swiss outbred, mouse, in vivo, IV 1 mg/kg, mice, read-out: apparent half-life (converted)): 30 h
- clearance ([4]; male, Swiss outbred, mouse, in vivo, IV 1 mg/kg, mice, read-out: blood clearance): 0.59 mL/min/kg
- half-life ([4]; male, Swiss outbred, mouse, in vivo, mice, IV, mean dose 1.0 mg/kg, read-out: Apparent t1/2 (converted)): 38 h
- clearance ([4]; male, Swiss outbred, mouse, in vivo, mice, IV, mean dose 1.0 mg/kg, read-out: Plasma CL): 0.491 mL/min/kg
- bioavailability ([4]; male, Swiss outbred, mouse, in vivo, po, mice, all doses 6.25 to 100 mg/kg, read-out: apparent oral bioavailability): ≥ 80%
- AUC(0-t) ([4]; male, Swiss outbred, mouse, in vivo, 100 mg/kg PO in mice, read-out: AUC0-last): 1800 µg·h/mL
- Cmax ([4]; male, Swiss outbred, mouse, in vivo, 100 mg/kg PO in mice, read-out: Cmax): 41000 ng/mL
- Vd ([4]; male, Swiss outbred, mouse, in vivo, IV 1 mg/kg, mice, read-out: volume of distribution): 1.59 L/kg
- AUC(0-t) ([4]; male, Swiss outbred, mouse, in vivo, mice, IV, mean dose 1.0 mg/kg, read-out: Plasma AUC0-48 h): 28.2 µg·h/mL
- AUC(0-inf) ([4]; male, Swiss outbred, mouse, in vivo, mice, IV, mean dose 1.0 mg/kg, read-out: Plasma AUC0-inf): 33.9 µg·h/mL
- Tmax ([4]; male, Swiss outbred, mouse, in vivo, mice, oral, mean dose 6.73 mg/kg): 3 h
- AUC(0-t) ([4]; male, Swiss outbred, mouse, in vivo, mice, oral, mean dose 6.73 mg/kg, read-out: Plasma AUC0-48 h): 145 µg·h/mL
- Cmax ([4]; male, Swiss outbred, mouse, in vivo, mice, oral, mean dose 6.73 mg/kg, read-out: Plasma Cmax): 3760 ng/mL
- Tmax ([4]; male, Swiss outbred, mouse, in vivo, mice, oral, mean dose 13.5 mg/kg): 7 h
- AUC(0-t) ([4]; male, Swiss outbred, mouse, in vivo, mice, oral, mean dose 13.5 mg/kg, read-out: Plasma AUC0-48 h): 320 µg·h/mL
- Cmax ([4]; male, Swiss outbred, mouse, in vivo, mice, oral, mean dose 13.5 mg/kg, read-out: Plasma Cmax): 8590 ng/mL
- Tmax ([4]; male, Swiss outbred, mouse, in vivo, mice, oral, mean dose 26.3 mg/kg): 7 h
- AUC(0-t) ([4]; male, Swiss outbred, mouse, in vivo, mice, oral, mean dose 26.3 mg/kg, read-out: Plasma AUC0-48 h): 607 µg·h/mL
- Cmax ([4]; male, Swiss outbred, mouse, in vivo, mice, oral, mean dose 26.3 mg/kg, read-out: Plasma Cmax): 14400 ng/mL
- Tmax ([4]; male, Swiss outbred, mouse, in vivo, mice, oral, mean dose 55.6 mg/kg): 3 h
- AUC(0-t) ([4]; male, Swiss outbred, mouse, in vivo, mice, oral, mean dose 55.6 mg/kg, read-out: Plasma AUC0-48 h): 1130 µg·h/mL
- Cmax ([4]; male, Swiss outbred, mouse, in vivo, mice, oral, mean dose 55.6 mg/kg, read-out: Plasma Cmax): 28200 ng/mL
- Tmax ([4]; male, Swiss outbred, mouse, in vivo, mice, oral, mean dose 99.7 mg/kg): 7 h
- AUC(0-t) ([4]; male, Swiss outbred, mouse, in vivo, mice, oral, mean dose 99.7 mg/kg, read-out: Plasma AUC0-48 h): 1800 µg·h/mL
- Cmax ([4]; male, Swiss outbred, mouse, in vivo, mice, oral, mean dose 99.7 mg/kg, read-out: Plasma Cmax): 40500 ng/mL
- PlasmaVSS ([4]; mice, IV, mean dose 1.0 mg/kg): 1.6 L/kg
- Apparent BA [4, 8]: 76%
- Plasma AUC0-48 h/Dose [4, 8]: 21.5 (μg*h/mL)/(mg/kg)
- Plasma Cmax/Dose [4, 8]: 0.559 (μg/mL)/(mg/kg)
- Apparent BA [4, 9]: 84%
- Plasma AUC0-48 h/Dose [4, 9]: 23.8 (μg*h/mL)/(mg/kg)
- Plasma Cmax/Dose [4, 9]: 0.638 (μg/mL)/(mg/kg)
- Apparent BA [4, 10]: 82%
- Plasma AUC0-48 h/Dose [4, 10]: 23.1 (μg*h/mL)/(mg/kg)
- Plasma Cmax/Dose [4, 10]: 0.547 (μg/mL)/(mg/kg)
- Apparent BA [4, 11]: 72%
- Plasma AUC0-48 h/Dose [4, 11]: 20.4 (μg*h/mL)/(mg/kg)
- Plasma Cmax/Dose [4, 11]: 0.507 (μg/mL)/(mg/kg)
- Apparent BA [4, 12]: 64%
- Plasma AUC0-48 h/Dose [4, 12]: 18.0 (μg*h/mL)/(mg/kg)
- Plasma Cmax/Dose [4, 12]: 0.407 (μg/mL)/(mg/kg)
- % bound [5]: 63%
- fraction unbound ([5]; human, plasma, read-out: % bound (converted)): 0.367
- LogD7.4 (shake flask) (LogD7.4 (shake flask)): 1.9
- logD (LogD7.4 (shake flask)): 1.9
- B:P [6]: 1.0
- IC50 (CYP 1A2; 1A2, read-out: CYP inhibition IC50): > 20 µM
- CYP inhibition (CYP 1A2; CYP 1A2, concentrations up to 20 μM, human liver microsomes): did not inhibit
- ED50 (S. mansoni; adult stage, read-out: S. mansoni ED50, adult): 7.1 mg/kg
- ED50 (S. mansoni; juvenile stage, read-out: S. mansoni ED50, juvenile): 16 mg/kg
- AUC ([7]; male, Sprague Dawley, rat, in vivo, iv, 0.9 mg/kg, IV 0.9 mg/kg, read-out: Plasma AUCIV): 31.7 µg·h/mL
- clearance ([7]; male, Sprague Dawley, rat, in vivo, iv, 0.9 mg/kg, IV 0.9 mg/kg, read-out: Plasma CL): 0.476 mL/min/kg
- Cmax ([7]; male, Sprague Dawley, rat, in vivo, po, 0.9 mg/kg, PO 0.9 mg/kg, read-out: Plasma Cmax): 440 ng/mL
- Tmax ([7]; male, Sprague Dawley, rat, in vivo, po, 0.9 mg/kg, PO 0.9 mg/kg, read-out: Tmax): 11 h
- half-life ([7]; male, Sprague Dawley, rat, in vivo, IV 0.9 mg/kg): 32 ± 2 h
- half-life ([7]; male, Sprague Dawley, rat, in vivo, PO 0.9 mg/kg): 39 h
- Apparent t1/2 ([7]; IV 0.9 mg/kg): 32 h
- PlasmaVSS ([7]; IV 0.9 mg/kg): 1.69 L/kg
- BA ([7]; PO 0.9 mg/kg): 113%
- Plasma AUCoral ([7]; PO 0.9 mg/kg): 36.0 H*ug/mL
- CYP inhibition (CYP 3A4; CYP 3A4, concentrations up to 20 μM, human liver microsomes): did not inhibit
- IC50 (CYP 3A4; read-out: CYP inhibition IC50, 3A4* (tes/mid)): > 20 µM
